Values of other authors as cited in patent US20100273258A1, “Interactive Microenvironment System” (The Ohio State University, priority 2009, published 2010).

Legend:
[1] = tested on: human breast cancer cell lines
[2] = tested on: DNA methylation of cancer suppressor genes; conditions: versus 5-Aza-2′-deoxycystidine and Trichostatin A (TSA)

Row | Compound | anti-proliferative effects ([1]; MCF-7, MCF-7Adr and MDA-MB-231 human breast cancer cell lines) | anti-human breast cancer proliferative potency relative to racemic (±)-GP ([1]; previously published data) [fold] | demethylating agent compared with clinical drugs [2]
1 | Cc1cc2c(C(C)C)c(O)c(O)c(C=O)c2c(O)c1-c1c(C)cc2c(C(C)C)c(O)c(O)c(C=O)c2c1O (racemic) [(±)-GP] | anti-proliferative effects | – | –
2 | Cc1cc2c(C(C)C)c(O)c(O)c(C=O)c2c(O)c1-c1c(C)cc2c(C(C)C)c(O)c(O)c(C=O)c2c1O [(−)-GP] | – | 10 | much better demethylating agent
